Experimental data as given in PubChem BioAssay (NCI).
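These data come from cells grown in 96-well plates and exposed to compound for 48 hours at five concentrations. TGI: total growth inhibition.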

Tests used:
Assay in all cases: NCI-60 cell line screen, 48 h
OVCAR-4 ovarian = tested on: OVCAR-4 ovarian
HCT-15 colon = tested on: HCT-15 colon
SK-MEL-5 melanoma = tested on: SK-MEL-5 melanoma
HS 578T breast = tested on: HS 578T breast
OVCAR-5 ovarian = tested on: OVCAR-5 ovarian
SNB-19 CNS = tested on: SNB-19 CNS
NCI-H226 lung = tested on: NCI-H226 lung
NCI-H460 lung = tested on: NCI-H460 lung
MCF7 breast = tested on: MCF7 breast
M14 melanoma = tested on: M14 melanoma
MDA-N = tested on: MDA-N
KM12 colon = tested on: KM12 colon
PC-3 prostate = tested on: PC-3 prostate
TK-10 renal = tested on: TK-10 renal
HCC-2998 colon = tested on: HCC-2998 colon
HOP-62 NSCLC = tested on: HOP-62 NSCLC
SK-OV-3 ovarian = tested on: SK-OV-3 ovarian
RPMI-8226 leukemia = tested on: RPMI-8226 leukemia
T-47D breast = tested on: T-47D breast
HT29 colon = tested on: HT29 colon
A498 renal = tested on: A498 renal
LOX IMVI melanoma = tested on: LOX IMVI melanoma
IGROV1 ovarian = tested on: IGROV1 ovarian
SF-295 CNS = tested on: SF-295 CNS
DU-145 prostate = tested on: DU-145 prostate
NCI-H23 lung = tested on: NCI-H23 lung
EKVX NSCLC = tested on: EKVX NSCLC
OVCAR-8 ovarian = tested on: OVCAR-8 ovarian
CCRF-CEM leukemia = tested on: CCRF-CEM leukemia
HL-60(TB) leukemia = tested on: HL-60(TB) leukemia
SF-268 CNS = tested on: SF-268 CNS
MDA-MB-231 breast = tested on: MDA-MB-231 breast
SN12C renal = tested on: SN12C renal
CAKI-1 renal = tested on: CAKI-1 renal
NCI/ADR-RES ovarian = tested on: NCI/ADR-RES ovarian
SR leukemia = tested on: SR leukemia
COLO 205 colon = tested on: COLO 205 colon
ACHN renal = tested on: ACHN renal
SK-MEL-28 melanoma = tested on: SK-MEL-28 melanoma
786-0 renal = tested on: 786-0 renal
HOP-92 NSCLC = tested on: HOP-92 NSCLC
OVCAR-3 ovarian = tested on: OVCAR-3 ovarian
MOLT-4 leukemia = tested on: MOLT-4 leukemia
SNB-75 CNS = tested on: SNB-75 CNS
UACC-257 melanoma = tested on: UACC-257 melanoma
MDA-MB-435 = tested on: MDA-MB-435
SW-620 colon = tested on: SW-620 colon
RXF 393 renal = tested on: RXF 393 renal
U251 CNS = tested on: U251 CNS
BT-549 breast = tested on: BT-549 breast
NCI-H522 lung = tested on: NCI-H522 lung
HCT-116 colon = tested on: HCT-116 colon
SF-539 CNS = tested on: SF-539 CNS
UO-31 renal = tested on: UO-31 renal
A549 NSCLC = tested on: A549 NSCLC
K-562 leukemia = tested on: K-562 leukemia
UACC-62 melanoma = tested on: UACC-62 melanoma
MALME-3M melanoma = tested on: MALME-3M melanoma
SK-MEL-2 melanoma = tested on: SK-MEL-2 melanoma

Structure (SMILES): O=[N+]([O-])c1ccc(N=Nc2c(O)[nH]c3ccccc23)c([N+](=O)[O-])c1
- TGI (OVCAR-4 ovarian): 30.7 µM
- TGI (HCT-15 colon): 57.9 µM
- TGI (SK-MEL-5 melanoma): > 100 µM
- TGI (HS 578T breast): > 100 µM
- TGI (OVCAR-5 ovarian): 50.2 µM
- TGI (SNB-19 CNS): 51 µM
- TGI (NCI-H226 lung): 75.5 µM
- TGI (NCI-H460 lung): 37.4 µM
- TGI (MCF7 breast): 80.7 µM
- TGI (M14 melanoma): > 100 µM
- TGI (MDA-N): > 100 µM
- TGI (KM12 colon): > 100 µM
- TGI (PC-3 prostate): > 100 µM
- TGI (TK-10 renal): 27.4 µM
- TGI (HCC-2998 colon): 44.1 µM
- TGI (HOP-62 NSCLC): 24.2 µM
- TGI (SK-OV-3 ovarian): 32.4 µM
- TGI (RPMI-8226 leukemia): > 100 µM
- TGI (T-47D breast): 52.8 µM
- TGI (HT29 colon): 81.7 µM
- TGI (A498 renal): 79.4 µM
- TGI (LOX IMVI melanoma): 20.7 µM
- TGI (IGROV1 ovarian): 24.2 µM
- TGI (SF-295 CNS): 25.1 µM
- TGI (DU-145 prostate): 30.1 µM
- TGI (NCI-H23 lung): 25.8 µM
- TGI (EKVX NSCLC): 20.7 µM
- TGI (OVCAR-8 ovarian): 27.8 µM
- TGI (CCRF-CEM leukemia): > 100 µM
- TGI (HL-60(TB) leukemia): > 100 µM
- TGI (SF-268 CNS): > 100 µM
- TGI (MDA-MB-231 breast): 29.9 µM
- TGI (SN12C renal): 38.8 µM
- TGI (CAKI-1 renal): 43.9 µM
- TGI (NCI/ADR-RES ovarian): 59.9 µM
- TGI (SR leukemia): > 100 µM
- TGI (COLO 205 colon): 71.2 µM
- TGI (ACHN renal): 19.2 µM
- TGI (SK-MEL-28 melanoma): > 100 µM
- TGI (786-0 renal): 28.8 µM
- TGI (HOP-92 NSCLC): 12.5 µM
- TGI (OVCAR-3 ovarian): 13.9 µM
- TGI (MOLT-4 leukemia): > 100 µM
- TGI (SNB-75 CNS): 72.3 µM
- TGI (UACC-257 melanoma): 34.6 µM
- TGI (MDA-MB-435): > 100 µM
- TGI (SW-620 colon): > 100 µM
- TGI (RXF 393 renal): 31.5 µM
- TGI (U251 CNS): 47.8 µM
- TGI (BT-549 breast): 34.1 µM
- TGI (NCI-H522 lung): > 100 µM
- TGI (HCT-116 colon): 49.7 µM
- TGI (SF-539 CNS): 10.2 µM
- TGI (UO-31 renal): 36.6 µM
- TGI (A549 NSCLC): 28 µM
- TGI (K-562 leukemia): > 100 µM
- TGI (UACC-62 melanoma): > 100 µM

Structure (SMILES): Cc1ccc2nc(NS(=O)(=O)c3cc(C)c(Cl)cc3S)[nH]c2c1
- TGI (OVCAR-4 ovarian): > 100 µM
- TGI (HCT-15 colon): > 100 µM
- TGI (MALME-3M melanoma): > 100 µM
- TGI (SK-MEL-5 melanoma): > 100 µM
- TGI (HS 578T breast): > 100 µM
- TGI (OVCAR-5 ovarian): > 100 µM
- TGI (SK-MEL-2 melanoma): > 100 µM
- TGI (SNB-19 CNS): > 100 µM
- TGI (NCI-H460 lung): 38.6 µM
- TGI (MCF7 breast): > 100 µM
- TGI (M14 melanoma): > 100 µM
- TGI (MDA-N): > 100 µM
- TGI (KM12 colon): > 100 µM
- TGI (PC-3 prostate): > 100 µM
- TGI (TK-10 renal): > 100 µM
- TGI (HCC-2998 colon): > 100 µM
- TGI (HOP-62 NSCLC): > 100 µM
- TGI (SK-OV-3 ovarian): > 100 µM
- TGI (RPMI-8226 leukemia): > 100 µM
- TGI (T-47D breast): > 100 µM
- TGI (HT29 colon): > 100 µM
- TGI (A498 renal): > 100 µM
- TGI (LOX IMVI melanoma): 73.2 µM
- TGI (IGROV1 ovarian): > 100 µM
- TGI (SF-295 CNS): > 100 µM
- TGI (DU-145 prostate): > 100 µM
- TGI (NCI-H23 lung): > 100 µM
- TGI (EKVX NSCLC): > 100 µM
- TGI (OVCAR-8 ovarian): > 100 µM
- TGI (CCRF-CEM leukemia): 69.8 µM
- TGI (HL-60(TB) leukemia): 72.7 µM
- TGI (SF-268 CNS): > 100 µM
- TGI (MDA-MB-231 breast): > 100 µM
- TGI (SN12C renal): > 100 µM
- TGI (CAKI-1 renal): > 100 µM
- TGI (NCI/ADR-RES ovarian): > 100 µM
- TGI (SR leukemia): > 100 µM
- TGI (COLO 205 colon): > 100 µM
- TGI (ACHN renal): > 100 µM
- TGI (SK-MEL-28 melanoma): > 100 µM
- TGI (786-0 renal): > 100 µM
- TGI (HOP-92 NSCLC): > 100 µM
- TGI (OVCAR-3 ovarian): > 100 µM
- TGI (MOLT-4 leukemia): > 100 µM
- TGI (SNB-75 CNS): > 100 µM
- TGI (UACC-257 melanoma): > 100 µM
- TGI (MDA-MB-435): > 100 µM
- TGI (SW-620 colon): > 100 µM
- TGI (RXF 393 renal): > 100 µM
- TGI (U251 CNS): > 100 µM
- TGI (BT-549 breast): > 100 µM
- TGI (NCI-H522 lung): > 100 µM
- TGI (HCT-116 colon): > 100 µM
- TGI (SF-539 CNS): > 100 µM
- TGI (UO-31 renal): > 100 µM
- TGI (A549 NSCLC): > 100 µM
- TGI (K-562 leukemia): > 100 µM
- TGI (UACC-62 melanoma): > 100 µM
